Data published in US12029726B1, “Composition and method of treating conditions associated with extracellular matrix dysfunction by administering micronutrient composition” (priority 2023, dated 2024).

Tested on: cultured human chondrocytes and synovial fibroblasts
Assay: LPS-induced arthritic processes in cultured human synovial cells (IL6, MMP13 release; Col2, Aggr, HA content), summary
Assay type: cell-based
Conditions: added to cell culture medium with LPS
Text: Inflammation process was initiated by additions of bacterial lipopolysaccharide (LPS) to cell culture medium. Tested parameters included cellular release of interleukin 6 (IL6) as an indicator of induced inflammation, cell culture accumulation of specific extracellular matrix (ECM) components, such as collagen type II (Col2), aggrecan (Aggr) and hyaluronic acid (HA), and release of matrix metalloproteinase 13 (MMP13) as an indicator of cartilage digesting process. Addition of LPS to cell cultures induced inflammation process characterized by dramatic increase in cellular release of IL6 and MMP13 and reduction in cell culture content of Col2, Aggr and HA.
Experiments: For the experiments cells were seeded in 96 well plastic cell culture plates covered with fibronectin (Greiner Bio-One) and grown to a confluent layer at 37° C. and 5% CO2 in corresponding cell culture medium. Cells were supplemented with 3 mcg/ml bacterial lipopolysaccharide (LPS, inflammation inducing treatment) and micronutrient composition were applied for indicated period in growth medium as indicated in the corresponding figure legends. At the end of the incubation cultured cells layers were washed twice with phosphate buffered saline (PBS) and treated in two ways: for the exposition of extracellular matrix (ECM) cells were lysed by 3 min incubation with 0.5% Triton X100/PBS which was followed by 3 min incubation with 25 mM NH4OH/PBS at room temperature or the cells were fixed by using 3% formaldehyde/PBS for one hour at 4° C. […]
Aggrecan, Collagen type II and Hyaluronic Acid content in 96 well plates prepared as described above, which is either exposed ECM or in fixed cells, was assayed by standard sandwich type immunoassay (ELISA, all reagents from Sigma-Aldrich) using rabbit polyclonal anti aggrecan, rabbit polyclonal anti collagen type II antibodies or biotinylated Hyaluronic Acid binding protein as primary treatment and goat anti rabbit IgG antibodies conjugated with horse radish peroxidase (HRP) or HRP-conjugated High Density Streptavidin as secondary treatment, respectively. Assayed component content was estimated by color changing reaction of HRP substrate (TMB substrate solution, Sigma-Aldrich) measured as 450 nm optical density using microplate optical density reader (Molecular Devices). […]
Effects of Micronutrient composition on Release of Inflammation Markers in Cultured Human Synovial Cells: Inflammation process was induced in human chondrocytes cultured in 96 well plates with LPS as described above. […] At the end of indicated incubation period interleukin 6 (IL6) and matrix metalloproteinase 13 (MMP13) levels in conditioned cell culture media were measured by ELISA using assay kits (R&D Systems) in accordance with manufacturer's protocol. […]

Structure (SMILES) | reversal of LPS-induced arthritic processes (increase in IL6 and MMP13 release, reduction in Col2, Aggr and HA content)
NC(=O)CC[C@H](N)C(=O)O [L-Glutamine] | reversed to different degrees
C[S+](CC[C@H](N)C(=O)[O-])C[C@H]1O[C@@H](n2cnc3c(N)ncnc32)[C@H](O)[C@@H]1O (stereo partly shown) [S-Adenosyl Methionine] | reversed to different degrees
O=C([O-])/C=C/C(=O)[O-].[Fe+2] [Iron (II) Fumarate] | reversed to different degrees
O=C(O)CCC(=O)C(=O)O [Alpha Keto-Glutarate] | reversed to different degrees
